These results are taken from patent publication US9556378B2, “Chelating agent precursors, fluids containing them, and their use” (AKZO NOBEL CHEMICALS INTERNATIONAL B.V., priority 2011, dated 2017).

Holding throughout (assay type): physicochemical
A short description of series [1]: Viscosity of chelate esters, Brookfield DV-II viscometer, spindle 25. The settings on record: 25° C. Here is the method:
(§1) In addition, where possible, the following physical properties of the chelate esters were determined at 25° C.: • Viscosity in mPas • Surface tension in mN/m • Density in kg/m^3
(§2) The viscosity was determined with a Brookfield DV-II viscometer equipped with spindle 25, which is suitable to measure high-viscous liquids. The principle of operation of the DV-II is to drive a specific spindle which is immersed in the test fluid. The viscous drag of the fluid against the spindle is measured by a calibrated spring. The viscosity is calculated from the rotational speed, type, and the torque of the spindle. In addition, the surface tension was determined with a bubble pressure tensiometer. The tensiometer produces gas bubbles at a constant rate and blows them through a capillary which is submerged in the sample liquid. The pressure (P) inside of the bubble continues to increase and the maximum value is obtained when the bubble has the completely hemispherical shape whose radius corresponds exactly to the radius of the capillary.

Series [2] can be described thus: Surface tension, bubble pressure tensiometer. Particulars: 25° C. As to the method: as §1, §2
By following each step of the bubble formation, change of bubble radius, and the corresponding pressure, the dynamic surface tension can be determined using the Laplace equation in the reduced form for spherical bubble shape within the liquid, equation: σ=(ΔPmax·Rcap)/2 where: σ=dynamic surface tension ΔPmax=maximum pressure drop Rcap=radius of capillary

The nature of series [3]: Density, gravimetric (0.50 ml in weighted pipette). Particulars: for Density: 25° C.; for density compared with water (in words): not measurable for the highly viscous esters. Here is the method: as §1
The density was determined gravimetrically by slowly sucking up exactly 0.50 ml of the chelate ester in a weighted pipette and by weighing the total weight of the pipette and the chelate-ester, the weight of 0.50 ml of chelate ester could be determined.

Series [4] can be described thus: Solubility of chelate ester in water.
A short description of series [5]: Hydrolysis rate of chelate esters followed by Fe-TSV (released chelate acid). Particulars: for rate of hydrolysis (in words): 20 wt % ester in demi water, 90° C., Fe-TSV, FIG. 1-3; for effect of pH on hydrolysis rate (release of chelating agent): pH adjusted with caustic to 7 versus ~1, FIG. 4; for solubility of the chelate acid compared with EDTA acid: observed on hydrolysis of the esters, solid EDTA is formed. As to the method:
(§3) In several experiments the hydrolysis of the chelate esters of Example 2 was investigated. First, the hydrolysis rate of the chelate esters was determined with ^1H and ^13C-NMR. […] Secondly, the hydrolysis rate was followed by determination of the Fe-TSV, which gives the concentration of the released chelate acid. To determine the Fe-TSV the chelate ester was added to demi water in a 5 ml glass vial, resulting in an ester concentration of 20 wt %. The mixture was continuously homogenized by shaking and a treatment in the ultrasonic bath. Subsequently, the vial was placed in a stove at 90° C. to simulate well conditions. After certain time intervals a sample was taken and analyzed on Fe-TSV. The percentage of hydrolysis is defined by:
The calculated chelate concentration at the start is calculated from the intake of the ester. The value is corrected for the purity as measured by NMR, assuming a 100% conversion of the corresponding chelate.

Series [6] in a line: Hydrolysis rate of chelate esters by 1H and 13C-NMR. The settings on record: 70° C. As to the method:
as §3, with “Fe-TSV.” for “Fe-TSV. The percentage of hydrolysis is defined by:”

Series [7] in a line: pH of the ester in water.
Setting [8] is: 1 wt % / 1% slurry in water, product as formed (acidic).

As for `CCCCOC(=O)CN(CCN(CC(=O)OCCCC)CC(=O)OCCCC)CC(=O)OCCCC` [EDTA 4 butyl ester, EDTA-tetrabutyl ester, reference compound], the Viscosity in series [1] is on record as 8,100 mPas. The compound also came in with a Surface tension in series [2] of 52.6 mN/m. For the same compound, in series [3], the Density is over 1 g/mL and the “density compared with water (in words)” value is “clearly higher than water”. In addition, in series [4], the “Soluble in water (pH = 0.5)” value is on record as “no (2 phases)”.
With `COC(=O)CN(CCN(CC(=O)OC)CC(=O)OC)CC(=O)OC` [EDTA 4 methyl ester, EDTA-tetramethyl ester, reference compound], in series [4], the “Soluble in water (pH = 0.5)” value is listed as “Yes” and the “Soluble in water (pH = ~7)” value was “Yes”. Further, in series [5], the “rate of hydrolysis (in words)” value was “hydrolyzed much faster than the corresponding GLDA or MGDA-methyl ester”.
As to `CCCOC(=O)CN(CCN(CC(=O)OCCC)CC(=O)OCCC)CC(=O)OCCC` [EDTA 4 propyl ester, EDTA-tetrapropyl ester, reference compound], in series [1], the Viscosity is 260,000 mPas. Moreover, in series [2], the Surface tension was found to be 51.3 mN/m. Moreover, in series [3], the Density was over 1 g/mL and the “density compared with water (in words)” value is on record as “clearly higher than water”. Moreover, in series [4], the “Soluble in water (pH = 0.5)” value is “Yes” and the “Soluble in water (pH = ~7)” value was “no (2 phases)”. In addition, the “effect of pH on hydrolysis rate (release of chelating agent)” value in series [5] was “decreased slightly with increasing pH”.
For `CCCCOCCOC(=O)CCC(C(=O)OCCOCCCC)N(CC(=O)OCCOCCCC)CC(=O)OCCOCCCC` (stereo not shown) [GLDA 4 EGMBE, GLDA-tetraEMGBE ester], in series [1], the Viscosity stood at 67 mPas. This compound also displayed a Surface tension in series [2] of 47.8 mN/m. The same compound showed a Density in series [3] of 1.06 g/mL. Besides, the “Soluble in water (pH = 0.5)” value in series [4] is given as “no (2 phases)”.
For `CCCCOC(=O)CCC(C(=O)OCCCC)N(CC(=O)OCCCC)CC(=O)OCCCC` (stereo not shown) [GLDA 4 butyl ester, GLDA-tetrabutyl ester] the same measures were 38 mPas, 41.3 mN/m, 1.04 g/mL and “no (2 phases)”.
As to `COC(=O)CCC(C(=O)OC)N(CC(=O)OC)CC(=O)OC` (stereo not shown) [GLDA 4 methyl ester, GLDA-tetramethyl ester], the “Soluble in water (pH = 0.5)” value in series [4] is “Yes”. Further, the “time to almost complete hydrolysis” value in series [6] is on record as about 2 days. Further, the “rate of hydrolysis (in words)” value in series [5] is reported as “nearly the same speed of hydrolysis”.
The compound `CCCOC(=O)CCC(C(=O)OCCC)N(CC(=O)OCCC)CC(=O)OCCC` (stereo not shown) [GLDA 4 propyl ester, GLDA-tetrapropyl ester] yielded a Viscosity in series [1] of 178 mPas. In addition, the Surface tension in series [2] was 69.2 mN/m. In series [3], this compound displayed a Density of 1.11 g/mL. Moreover, in series [4], the “Soluble in water (pH = 0.5)” value is on record as “no (2 phases)” and the “Soluble in water (pH = ~7)” value is reported as “no (2 phases)”. The “effect of pH on hydrolysis rate (release of chelating agent)” value in series [5] was “decreased slightly with increasing pH”.
On to `CCOC(=O)CCC(C(=O)OCC)N(CC(=O)OCC)CC(=O)OCC` (stereo not shown) [GLDA tetra ethyl ester], for which the pH in series [7] (1% slurry in water, less acidic product after treatment with 1 eq Na2CO3) is given as about 9; in series [7] (setting [8]), 1.8.
For `O=C(O)CC[C@@H](C(=O)O)N(CC(=O)O)CC(=O)O` [GLDA, glutamic acid N,N-diacetic acid], the “solubility of the chelate acid compared with EDTA acid” value in series [5] is reported as “significantly higher”.
With `COC(=O)CN(CC(=O)OC)C(C)C(=O)OC` (stereo not shown) [MGDA 3 methyl ester, MGDA-trimethyl ester], in series [4], the “Soluble in water (pH = 0.5)” value is recorded as “Yes”. Besides, in series [6], the “time to almost complete hydrolysis” value was about 2 days. Moreover, in series [5], the “rate of hydrolysis (in words)” value is “nearly the same speed of hydrolysis”.
Regarding `CC(C(=O)O)N(CC(=O)O)CC(=O)O` (stereo not shown) [MGDA, methylglycine N,N-diacetic acid], the “solubility of the chelate acid compared with EDTA acid” value in series [5] is recorded as “significantly higher”.
In series [7] (setting [8]), GLDA Mono Ethyl Ester registered a pH of 1.8.
